Paper PMC7856178 (Archives of biochemistry and biophysics, 2020)
Where “and” joins values, the source holds several entries; their conditions need not be identical. Equal entries are not always repeated. Where two headings read alike, the source gives them in different places.

Columns and labels:
[1] = biological target: CYP2E1 (Homo sapiens, UniProt P05181); type: binding
[2] = biological target: T1, CYP3A4 (Homo sapiens, UniProt P08684); type: binding; conditions: SS(3A4) in the presence of 25 μM ANF
Target sequence in this assay (P08684 2-503 limits assumed): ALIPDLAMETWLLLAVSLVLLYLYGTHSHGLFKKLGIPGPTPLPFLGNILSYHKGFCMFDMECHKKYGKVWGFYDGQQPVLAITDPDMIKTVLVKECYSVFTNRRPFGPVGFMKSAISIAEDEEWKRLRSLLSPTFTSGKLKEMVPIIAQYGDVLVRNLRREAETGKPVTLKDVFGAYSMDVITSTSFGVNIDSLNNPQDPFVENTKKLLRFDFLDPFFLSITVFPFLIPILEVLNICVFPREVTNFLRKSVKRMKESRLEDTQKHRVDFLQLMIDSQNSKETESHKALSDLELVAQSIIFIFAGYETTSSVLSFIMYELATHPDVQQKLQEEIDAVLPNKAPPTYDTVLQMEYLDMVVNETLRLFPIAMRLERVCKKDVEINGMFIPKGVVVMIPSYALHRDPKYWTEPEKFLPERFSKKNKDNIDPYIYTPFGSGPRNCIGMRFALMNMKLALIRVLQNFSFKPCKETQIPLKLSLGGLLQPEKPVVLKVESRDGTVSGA

[3] = biological target: T1, CYP3A4; test: Fluorimetric assay of BQ debenzylation in intact and CYP2E1-enriched HLM
Target sequence in this assay (P08684 whole entry): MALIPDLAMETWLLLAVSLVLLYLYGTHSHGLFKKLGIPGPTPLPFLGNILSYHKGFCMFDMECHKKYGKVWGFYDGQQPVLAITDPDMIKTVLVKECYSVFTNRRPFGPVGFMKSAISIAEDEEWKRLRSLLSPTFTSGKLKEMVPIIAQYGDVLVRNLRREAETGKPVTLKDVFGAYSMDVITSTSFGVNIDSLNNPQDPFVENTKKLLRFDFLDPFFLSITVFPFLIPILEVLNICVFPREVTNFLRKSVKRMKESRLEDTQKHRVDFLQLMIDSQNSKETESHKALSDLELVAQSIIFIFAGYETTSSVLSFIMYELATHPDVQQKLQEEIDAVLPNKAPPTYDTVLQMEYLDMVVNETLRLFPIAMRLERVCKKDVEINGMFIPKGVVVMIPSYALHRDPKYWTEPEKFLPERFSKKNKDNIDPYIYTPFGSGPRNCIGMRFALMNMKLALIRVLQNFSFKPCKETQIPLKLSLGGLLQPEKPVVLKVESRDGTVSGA

[4] = test system: CYP2C19; conditions: cited from earlier work
[5] = test system: CYP1A2; conditions: cited from earlier work
[6] = test system: CYP3A5; conditions: cited from earlier work
[7] = test system: CYP2E1; conditions: cited from earlier work
[8] = biological target: T1, CYP3A4; test: Rate of midazolam hydroxylation by pooled HLM; conditions: 100 μM substrate; for Turnover rate (per metabolizing P450 enzyme): per CYP3A4
Target sequence in this assay (P08684 whole entry): as above

[9] = in vivo; cited from earlier work
[10] = test system: CYP3A4; conditions: prolonged exposure; human hepatocytes; cited from earlier work
[11] = test system: CYP3A4; conditions: prolonged exposure; HepG2 cells; cited from earlier work
[12] = 25 μM ANF, all four HLM samples

In the case of O[C@@H](CS)[C@@H](O)CS (racemic) [DTT, dithiothreitol], the Kd [1] is reported as 10.4 mM.
For O=c1cc(-c2ccccc2)oc2c1ccc1ccccc12 [ANF, 7,8-benzoflavone], the “(Lipid/CYP2E1)50%” value ([2]; calculated from [CYP2E1]50%) was 604 and 604 ± 62, the “FRET Efficiency” value ([2]; from Rmax by Eq. 4) was 84 ± 20% and the “Effect of ANF on Vmax of BQ metabolism” value ([3]; 25 μM ANF, HLM-A) was “no statistically significant effect”. For the same compound, the “Effect of ANF on the maximal rate of BQ metabolism” value ([3]; 25 μM ANF, HLM-N1) was “increased the maximal rate of reaction almost two times”, the “Effect of ANF on Vmax of BQ metabolism” value ([3]; 25 μM ANF, HLM-N2) was “no statistically significant effect” and the “Effect of ANF on the maximal rate of BQ metabolism” value ([3]; 25 μM ANF, HLM-N3) was “over two-fold inhibition”. For the same compound, the “Effect of ANF on S50 values of BQ” value [3, 12] was “considerably decreased the S50 values” and the “Effect of ANF on homotropic cooperativity observed with BQ” value [3, 12] was “eliminated homotropic cooperativity”.
In the case of CN(C)CCC=C1c2ccccc2CCc2ccccc21 [Amitriptyline], the Km [4] is given as ~14 µM.
In the case of c1ccc(COc2ccc3cccnc3c2)cc1 [BQ, 7-benzyloxyquinoline], the “Turnover number with BQ, times lower than that of CYP3A4” value [5] is given as 8.5 times, the “Turnover number with BQ, times lower than that of CYP3A4” value [6] is given as 4.3 times and the “Ability of CYP2E1 to metabolize BQ” value [7] is given as “lacks any potential to metabolize this substrate”. The “N (Hill coefficient)” value ([3]; HLM-A+2E1 (1:1 CYP2E1-enriched), +25 μM ANF) was 0.85 ± 0.26 (0.03), the “N (Hill coefficient)” value ([3]; HLM-A+2E1 (1:1 CYP2E1-enriched), no effector) was 1.47 ± 0.30 (0.30) and the “N (Hill coefficient)” value ([3]; HLM-A, +25 μM ANF) was 0.99 ± 0.20 (0.03). For the same compound, the “N (Hill coefficient)” value ([3]; HLM-A, no effector) was 1.02 ± 0.15, the “N (Hill coefficient)” value ([3]; HLM-N1+2E1 (1:1 CYP2E1-enriched), +25 μM ANF) was 0.87 ± 0.16 (0.02) and the “N (Hill coefficient)” value ([3]; HLM-N1+2E1 (1:1 CYP2E1-enriched), no effector) was 1.26 ± 0.12 (0.01). For the same compound, the “N (Hill coefficient)” value ([3]; HLM-N1, +25 μM ANF) was 0.83 ± 0.12 (<10^−2), the “N (Hill coefficient)” value ([3]; HLM-N1, no effector) was 2.24 ± 0.37 and the “N (Hill coefficient)” value ([3]; HLM-N2+2E1 (1:1 CYP2E1-enriched), +25 μM ANF) was 0.86 ± 0.08 (<10^−2). The “N (Hill coefficient)” value ([3]; HLM-N2+2E1 (1:1 CYP2E1-enriched), no effector) was 1.13 ± 0.03 (<10^−6), the “N (Hill coefficient)” value ([3]; HLM-N2, +25 μM ANF) was 1.02 ± 0.37 (0.01) and the “N (Hill coefficient)” value ([3]; HLM-N2, no effector) was 1.92 ± 0.02. The “Vmax, times lower than that of HLM-A” value ([3]; HLM-N2, no effector) was 2.2 times, the “N (Hill coefficient)” value ([3]; HLM-N3+2E1 (1:1 CYP2E1-enriched), +25 μM ANF) was 1.02 ± 0.24 (0.07) and the “N (Hill coefficient)” value ([3]; HLM-N3+2E1 (1:1 CYP2E1-enriched), no effector) was 1.28 ± 0.09 (0.01). For the same compound, the “N (Hill coefficient)” value ([3]; HLM-N3, +25 μM ANF) was 1.22 ± 0.30 (0.03), the “N (Hill coefficient)” value ([3]; HLM-N3, no effector) was 2.09 ± 0.44 and the “Vmax, times lower than that of HLM-A” value ([3]; HLM-N3, no effector) was 1.4 times. The Hill coefficient ([3]; all three samples of HLM-N, no effector) was 1.9 – 2.2 and the “Vmax of HLM-A relative to HLM-N1” value ([3]; no effector) was “over six times higher”.
With Cc1ncc2n1-c1ccc(Cl)cc1C(c1ccccc1F)=NC2 [Midazolam] the “Turnover rate (per CPR)” value ([8]; HLM-A) was 11.2 ± 5.3 min⁻¹, the “Turnover rate (per metabolizing P450 enzyme)” value ([8]; HLM-A) was 6.8 ± 3.2 min⁻¹ and the “Turnover rate (per CPR)” value ([8]; HLM-N2) was 7.3 ± 2.1 min⁻¹. For the same compound, the “Turnover rate (per metabolizing P450 enzyme)” value ([8]; HLM-N2) was 3.3 ± 0.9 min⁻¹, the “Turnover rate (per CPR)” value ([8]; HLM-N3) was 8.2 ± 4.0 min⁻¹ and the “Turnover rate (per metabolizing P450 enzyme)” value ([8]; HLM-N3) was 3.1 ± 1.5 min⁻¹.
In the case of C[C@H]1c2cccc(O)c2C(O)=C2C(=O)[C@]3(O)C(O)=C(C(N)=O)C(=O)[C@@H](N(C)C)[C@@H]3[C@@H](O)[C@@H]21 [doxycyclin], the “Rate of metabolism under the influence of chronic alcohol exposure” value [9] is listed as “increased rate of metabolism”.
For CCO [ethanol], the “Concentration of ethanol giving a noticeable elevation in the CYP3A4 content” value [10] is given as ≥ 50000 µM and the “Concentration of ethanol giving a noticeable elevation in the CYP3A4 content” value [11] is given as ≥ 50000 µM.
